# From patent US20230022724A1, “NOVEL IMIDAZOPYRAZINE DERIVATIVES” (Hoffmann-La Roche Inc., priority 2018, published 2023)
# Counter-ions that a name gives are not always drawn.
# Test system: Acinetobacter baumannii ATCC17978
# Experiment: Antimicrobial susceptibility testing: 90% growth inhibitory concentration (IC90) determination
# Type: cell-based
# Conditions: 90% growth inhibitory concentration, Acinetobacter baumannii ATCC17978, Iso-Sensitest broth, OD 600 nm over 16 h; read-out: ATCC17978 IC90
# How it was run: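 Compounds in twofold series (e.g. 50 to 0.097 μM final) in Iso-Sensitest broth, inoculated at ~5×10^5 CFU/ml, incubated at 35±2° C. OD600 was read every 20 minutes for 16 h. IC90 was derived from growth inhibition during logarithmic phase.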
row,Structure (SMILES),IC90
1,"N#CCOc1ccc(-c2cnc3c(Nc4ccc(C(=O)N5CCC(C(=O)OCC6CNCCN6)CC5)c(Cl)c4)nccn23)c(F)c1F (centres unmarked) [Example 83, piperazin-2-ylmethyl 1-[2-chloro-4-[[3-[4-(cyanomethoxy)-2,3-difluorophenyl]imidazo[1,2-a]pyrazin-8-yl]amino]benzoyl]piperidine-4-carboxylate;2,2,2-trifluoroacetic acid]",140 nM
2,"CN(C)CCN1CCN(C(=O)c2ccc(Nc3nccn4c(-c5ccc(OCC#N)c(F)c5F)cnc34)cc2Cl)CC1 [Example 84, 2-[4-[8-[3-chloro-4-[4-[2-(dimethylamino)ethyl]piperazine-1-carbonyl]anilino]imidazo[1,2-a]pyrazin-3-yl]-2,3-difluorophenoxy]acetonitrile; 2,2,2-trifluoroacetic acid]",110 nM

# Same assay, conditions: Acinetobacter baumannii, ATCC17978, 16 h, 90% growth inhibitory concentration, Acinetobacter baumannii ATCC17978, Iso-Sensitest broth, OD 600 nm over 16 h; read-out: ATCC17978 IC90
row,IC90,Structure (SMILES)
1,42 nM,N#CCOc1ccc(-c2cnc3c(Nc4ccc(C(=O)N5CCN(CCN6CCC(C(N)=O)C6)CC5)c(Cl)c4)nccn23)c(F)c1F (centres unmarked) [Example 89]
2,49 nM,"CNCCN1CCN(C(=O)c2ccc(Nc3nccn4c(-c5ccc(OCC#N)c(F)c5F)cnc34)cc2Cl)CC1 [Example 91, 2-[4-[8-[3-chloro-4-[4-[2-(methylamino)ethyl]piperazine-1-carbonyl]anilino]imidazo[1,2-a]pyrazin-3-yl]-2,3-difluorophenoxy]acetonitrile; 2,2,2-trifluoroacetic acid]"
3,54 nM,"N#CCOc1ccc(-c2cnc3c(Nc4ccc(C(=O)N5CCN(CCN6CC(C(N)=O)C6)CC5)c(Cl)c4)nccn23)c(F)c1F [Example 94, 1-[2-[4-[2-chloro-4-[[3-[4-(cyanomethoxy)-2,3-difluorophenyl]imidazo[1,2-a]pyrazin-8-yl]amino]benzoyl]piperazin-1-yl]ethyl]azetidine-3-carboxamide;2,2,2-trifluoroacetic acid]"
4,630 nM,"N#CCOc1ccc(-c2cnc3c(Nc4ccc(C(=O)N5CCN(CCN6CCC[C@H]6C(=O)O)CC5)c(Cl)c4)nccn23)c(F)c1F [Example 104, (2-(4-(2-chloro-4-((3-(4-(cyanomethoxy)-2,3-difluorophenyl)imidazo[1,2-a]pyrazin-8-yl)amino)benzoyl)piperazin-1-yl)ethyl)proline trifluoroacetate]"
5,360 nM,"N#CCOc1ccc(-c2cnc3c(Nc4ccc(C(=O)N5CCN(CCN6CC(c7nnn[nH]7)C6)CC5)c(Cl)c4)nccn23)c(F)c1F [Example 105, 2-(4-(8-((4-(4-(2-(3-(2H-tetrazol-5-yl)azetidin-1-yl)ethyl)piperazine-1-carbonyl)-3-chlorophenyl)amino)imidazo [1,2-a]pyrazin-3-yl)-2,3-difluorophenoxy)acetonitrile trifluoroacetate]"

# Same assay, conditions: Acinetobacter baumannii, ATCC17978, 16 h, read-out: ATCC17978 IC90
row,Structure (SMILES),IC90
1,"N#CCOc1ccc(-c2cnc3c(Nc4ccc(C(=O)N5CCC(C(=O)N6CCN[C@@H](CO)C6)CC5)c(Cl)c4)nccn23)c(F)c1F [Example 85, 2-[4-[8-[3-chloro-4-[4-[(3R)-3-(hydroxymethyl)piperazine-1-carbonyl]piperidine-1-carbonyl]anilino]imidazo[1,2-a]pyrazin-3-yl]-2,3-difluorophenoxy]acetonitrile; formic acid]",46 nM
2,"N#CCOc1ccc(-c2cnc3c(Nc4ccc(C(=O)N5CCC(C(=O)N6CCN[C@@H](CO)C6)CC5)c(Cl)c4)nccn23)c(Cl)c1F [Example 86, 2-[3-chloro-4-[8-[3-chloro-4-[4-[(3R)-3-(hydroxymethyl)piperazine-1-carbonyl]piperidine-1-carbonyl]anilino]imidazo[1,2-a]pyrazin-3-yl]-2-fluorophenoxy]acetonitrile; formic acid]",49 nM
3,"N#CCOc1ccc(-c2cnc3c(Nc4ccc(C(=O)N5CCC(C(=O)N6CCN[C@H](CO)C6)CC5)c(Cl)c4)nccn23)c(F)c1F [Example 87, 2-[4-[8-[3-chloro-4-[4-[(3S)-3-(hydroxymethyl)piperazine-1-carbonyl]piperidine-1-carbonyl]anilino]imidazo[1,2-a]pyrazin-3-yl]-2,3-difluorophenoxy]acetonitrile; formic acid]",52 nM
4,"N#CCOc1ccc(-c2cnc3c(Nc4ccc(C(=O)N5CCC(C(=O)N6CCN[C@H](CO)C6)CC5)c(Cl)c4)nccn23)c(Cl)c1F [Example 88, 2-[3-chloro-4-[8-[3-chloro-4-[4-[(3S)-3-(hydroxymethyl)piperazine-1-carbonyl]piperidine-1-carbonyl]anilino]imidazo[1,2-a]pyrazin-3-yl]-2-fluorophenoxy]acetonitrile; formic acid]",90 nM
5,"N#CCOc1ccc(-c2cnc3c(Nc4ccc(C(=O)N5CCN(CCN6CCC(CO)C6)CC5)c(Cl)c4)nccn23)c(F)c1F (centres unmarked) [Example 90, 2-[4-[8-[3-chloro-4-[4-[2-[3-(hydroxymethyl)pyrrolidin-1-yl]ethyl]piperazine-1-carbonyl]anilino]imidazo[1,2-a]pyrazin-3-yl]-2,3-difluorophenoxy]acetonitrile; 2,2,2-trifluoroacetic acid]",43 nM
6,"N#CCOc1ccc(-c2cnc3c(Nc4ccc(C(=O)N5CCN(CCN6CC(CO)C6)CC5)c(Cl)c4)nccn23)c(F)c1F [Example 92, 2-[4-[8-[3-chloro-4-[4-[2-[3-(hydroxymethyl)azetidin-1-yl]ethyl]piperazine-1-carbonyl]anilino]imidazo[1,2-a]pyrazin-3-yl]-2,3-difluorophenoxy]acetonitrile; 2,2,2-trifluoroacetic acid]",50 nM
7,"N#CCOc1ccc(-c2cnc3c(Nc4ccc(C(=O)N5CCN(CCN6CCCC6CO)CC5)c(Cl)c4)nccn23)c(F)c1F (centres unmarked) [Example 93, 2-[4-[8-[3-chloro-4-[4-[2-[2-(hydroxymethyl)pyrrolidin-1-yl]ethyl]piperazine-1-carbonyl]anilino]imidazo[1,2-a]pyrazin-3-yl]-2,3-difluorophenoxy]acetonitrile; 2,2,2-trifluoroacetic acid]",53 nM
8,"N#CCOc1ccc(-c2cnc3c(Nc4ccc(C(=O)N5CCN(CCN6CCC(O)C6)CC5)c(Cl)c4)nccn23)c(F)c1F (centres unmarked) [Example 95, 2-[4-[8-[3-chloro-4-[4-[2-(3-hydroxypyrrolidin-1-yl)ethyl]piperazine-1-carbonyl]anilino]imidazo[1,2-a]pyrazin-3-yl]-2,3-difluorophenoxy]acetonitrile; 2,2,2-trifluoroacetic acid]",56 nM
9,"N#CCOc1ccc(-c2cnc3c(Nc4ccc(C(=O)N5CCN(CCN6CC(O)C6)CC5)c(Cl)c4)nccn23)c(F)c1F [Example 96, 2-[4-[8-[3-chloro-4-[4-[2-(3-hydroxyazetidin-1-yl)ethyl]piperazine-1-carbonyl]anilino]imidazo[1,2-a]pyrazin-3-yl]-2,3-difluorophenoxy]acetonitrile; 2,2,2-trifluoroacetic acid]",73 nM
10,"COC1CN(CCN2CCN(C(=O)c3ccc(Nc4nccn5c(-c6ccc(OCC#N)c(F)c6F)cnc45)cc3Cl)CC2)C1 [Example 97, 2-[4-[8-[3-chloro-4-[4-[2-(3-methoxyazetidin-1-yl)ethyl]piperazine-1-carbonyl]anilino]imidazo[1,2-a]pyrazin-3-yl]-2,3-difluorophenoxy]acetonitrile; 2,2,2-trifluoroacetic acid]",100 nM
11,"CS(=O)(=O)C1CN(CCN2CCN(C(=O)c3ccc(Nc4nccn5c(-c6ccc(OCC#N)c(F)c6F)cnc45)cc3Cl)CC2)C1 [Example 98, 2-[4-[8-[3-chloro-4-[4-[2-(3-methylsulfonylazetidin-1-yl)ethyl]piperazine-1-carbonyl]anilino]imidazo[1,2-a]pyrazin-3-yl]-2,3-difluorophenoxy]acetonitrile; 2,2,2-trifluoroacetic acid]",140 nM
12,"CN(C)CC1CN(CCN2CCN(C(=O)c3ccc(Nc4nccn5c(-c6ccc(OCC#N)c(F)c6F)cnc45)cc3Cl)CC2)C1 [Example 99, 2-[4-[8-[3-chloro-4-[4-[2-[3-[(dimethylamino)methyl]azetidin-1-yl]ethyl]piperazine-1-carbonyl]anilino]imidazo[1,2-a]pyrazin-3-yl]-2,3-difluorophenoxy]acetonitrile; 2,2,2-trifluoroacetic acid]",170 nM
13,"CN(C)C1CCN(CCN2CCN(C(=O)c3ccc(Nc4nccn5c(-c6ccc(OCC#N)c(F)c6F)cnc45)cc3Cl)CC2)C1 (centres unmarked) [Example 100, 2-[4-[8-[3-chloro-4-[4-[2-[3-(dimethylamino)pyrrolidin-1-yl]ethyl]piperazine-1-carbonyl]anilino]imidazo[1,2-a]pyrazin-3-yl]-2,3-difluorophenoxy]acetonitrile; 2,2,2-trifluoroacetic acid]",170 nM
14,"CN(C)C1CCN(CCN2CCN(C(=O)c3ccc(Nc4nccn5c(-c6ccc(OCC#N)c(F)c6F)cnc45)cc3Cl)CC2)CC1 [Example 101, 2-[4-[8-[3-chloro-4-[4-[2-[4-(dimethylamino)piperidin-1-yl]ethyl]piperazine-1-carbonyl]anilino]imidazo[1,2-a]pyrazin-3-yl]-2,3-difluorophenoxy]acetonitrile; 2,2,2-trifluoroacetic acid]",170 nM
15,"CN(C)C1CN(CCN2CCN(C(=O)c3ccc(Nc4nccn5c(-c6ccc(OCC#N)c(F)c6F)cnc45)cc3Cl)CC2)C1 [Example 102, 2-[4-[8-[3-chloro-4-[4-[2-[3-(dimethylamino)azetidin-1-yl]ethyl]piperazine-1-carbonyl]anilino]imidazo[1,2-a]pyrazin-3-yl]-2,3-difluorophenoxy]acetonitrile; 2,2,2-trifluoroacetic acid]",170 nM
16,"CS(=O)(=O)C1CCN(CCN2CCN(C(=O)c3ccc(Nc4nccn5c(-c6ccc(OCC#N)c(F)c6F)cnc45)cc3Cl)CC2)C1 (centres unmarked) [Example 103, 2-[4-[8-[3-chloro-4-[4-[2-(3-methylsulfonylpyrrolidin-1-yl)ethyl]piperazine-1-carbonyl]anilino]imidazo[1,2-a]pyrazin-3-yl]-2,3-difluorophenoxy]acetonitrile; 2,2,2-trifluoroacetic acid]",180 nM
